Data taken from patent US9783537B2, “3-(4-ethylnylphenyl) pyridopyrimidinone compounds and process for preparation thereof useful as potential anticancer agents” (Council of Scientific & Industrial Research, priority 2013, dated 2017).

Test system: SK-MEL-2
Experiment: SRB 48 h growth assay, Melanoma SK-MEL-2
Format: cell-based, human
Conditions: Homo sapiens, SK-MEL-2, Melanoma, read-out: Log10 LC50 (converted)

Compound	CC50 [µM]
C#Cc1ccc(-n2c(/C=C/c3cc(OC)c(OC)c(OC)c3)nc3ncccc3c2=O)cc1 [4q, (E)-3-(4-Ethynylphenyl)-2-(3,4,5-trimethoxystyryl)pyrido[2,3-d]pyrimidin-4(3H)-one]	> 100

Same assay, conditions: SK-MEL-2, Melanoma

Compound	Log10 TGI50
C#Cc1ccc(-n2c(/C=C/c3cc(OC)c(OC)c(OC)c3)nc3ncccc3c2=O)cc1 [4q, (E)-3-(4-Ethynylphenyl)-2-(3,4,5-trimethoxystyryl)pyrido[2,3-d]pyrimidin-4(3H)-one]	−4.66

Test system: HCC-2998
Experiment: SRB 48 h growth assay, Colon HCC-2998
Format: cell-based, human
Conditions: HCC-2998, Colon

Compound	Log10 TGI50
C#Cc1ccc(-n2c(/C=C/c3cc(OC)c(OC)c(OC)c3)nc3ncccc3c2=O)cc1 [4q, (E)-3-(4-Ethynylphenyl)-2-(3,4,5-trimethoxystyryl)pyrido[2,3-d]pyrimidin-4(3H)-one]	>−4.00

Same assay, conditions: Homo sapiens, HCC-2998, Colon, read-out: Growth Inhibition GI50

Compound	GI50 [µM]
C#Cc1ccc(-n2c(/C=C/c3cc(OC)c(OC)c(OC)c3)nc3ncccc3c2=O)cc1 [4q, (E)-3-(4-Ethynylphenyl)-2-(3,4,5-trimethoxystyryl)pyrido[2,3-d]pyrimidin-4(3H)-one]	27.5

Same assay, conditions: Homo sapiens, HCC-2998, Colon, read-out: Log10 GI50 (converted)

Compound	GI50 [µM]
C#Cc1ccc(-n2c(/C=C/c3cc(OC)c(OC)c(OC)c3)nc3ncccc3c2=O)cc1 [4q, (E)-3-(4-Ethynylphenyl)-2-(3,4,5-trimethoxystyryl)pyrido[2,3-d]pyrimidin-4(3H)-one]	27.5

Same assay, conditions: Homo sapiens, HCC-2998, Colon, read-out: Log10 LC50 (converted)

Compound	CC50 [µM]
C#Cc1ccc(-n2c(/C=C/c3cc(OC)c(OC)c(OC)c3)nc3ncccc3c2=O)cc1 [4q, (E)-3-(4-Ethynylphenyl)-2-(3,4,5-trimethoxystyryl)pyrido[2,3-d]pyrimidin-4(3H)-one]	> 100

Test system: OVCAR-5
Experiment: SRB 48 h growth assay, Ovarian OVCAR-5
Format: cell-based, human
Conditions: Homo sapiens, OVCAR-5, Ovarian, read-out: Growth Inhibition GI50

Compound	GI50 [µM]
C#Cc1ccc(-n2c(/C=C/c3cc(OC)c(OC)c(OC)c3)nc3ncccc3c2=O)cc1 [4q, (E)-3-(4-Ethynylphenyl)-2-(3,4,5-trimethoxystyryl)pyrido[2,3-d]pyrimidin-4(3H)-one]	> 100

Same assay, conditions: Homo sapiens, OVCAR-5, Ovarian, read-out: Log10 GI50 (converted)

Compound	GI50 [µM]
C#Cc1ccc(-n2c(/C=C/c3cc(OC)c(OC)c(OC)c3)nc3ncccc3c2=O)cc1 [4q, (E)-3-(4-Ethynylphenyl)-2-(3,4,5-trimethoxystyryl)pyrido[2,3-d]pyrimidin-4(3H)-one]	> 100

Same assay, conditions: Homo sapiens, OVCAR-5, Ovarian, read-out: Log10 LC50 (converted)

Compound	CC50 [µM]
C#Cc1ccc(-n2c(/C=C/c3cc(OC)c(OC)c(OC)c3)nc3ncccc3c2=O)cc1 [4q, (E)-3-(4-Ethynylphenyl)-2-(3,4,5-trimethoxystyryl)pyrido[2,3-d]pyrimidin-4(3H)-one]	> 100

Same assay, conditions: OVCAR-5, Ovarian

Compound	Log10 TGI50
C#Cc1ccc(-n2c(/C=C/c3cc(OC)c(OC)c(OC)c3)nc3ncccc3c2=O)cc1 [4q, (E)-3-(4-Ethynylphenyl)-2-(3,4,5-trimethoxystyryl)pyrido[2,3-d]pyrimidin-4(3H)-one]	>−4.00

Test system: CAKI-1
Experiment: SRB 48 h growth assay, Renal CAKI-1
Format: cell-based, human
Conditions: CAKI-1, Renal

Compound	Log10 TGI50
C#Cc1ccc(-n2c(/C=C/c3cc(OC)c(OC)c(OC)c3)nc3ncccc3c2=O)cc1 [4q, (E)-3-(4-Ethynylphenyl)-2-(3,4,5-trimethoxystyryl)pyrido[2,3-d]pyrimidin-4(3H)-one]	>−4.00

Same assay, conditions: Homo sapiens, CAKI-1, Renal, read-out: Growth Inhibition GI50

Compound	GI50 [µM]
C#Cc1ccc(-n2c(/C=C/c3cc(OC)c(OC)c(OC)c3)nc3ncccc3c2=O)cc1 [4q, (E)-3-(4-Ethynylphenyl)-2-(3,4,5-trimethoxystyryl)pyrido[2,3-d]pyrimidin-4(3H)-one]	6.07

Same assay, conditions: Homo sapiens, CAKI-1, Renal, read-out: Log10 GI50 (converted)

Compound	GI50 [µM]
C#Cc1ccc(-n2c(/C=C/c3cc(OC)c(OC)c(OC)c3)nc3ncccc3c2=O)cc1 [4q, (E)-3-(4-Ethynylphenyl)-2-(3,4,5-trimethoxystyryl)pyrido[2,3-d]pyrimidin-4(3H)-one]	6.03

Same assay, conditions: Homo sapiens, CAKI-1, Renal, read-out: Log10 LC50 (converted)

Compound	CC50 [µM]
C#Cc1ccc(-n2c(/C=C/c3cc(OC)c(OC)c(OC)c3)nc3ncccc3c2=O)cc1 [4q, (E)-3-(4-Ethynylphenyl)-2-(3,4,5-trimethoxystyryl)pyrido[2,3-d]pyrimidin-4(3H)-one]	> 100

Test system: SN12C
Experiment: SRB 48 h growth assay, Renal SN12C
Format: cell-based, human
Conditions: not given

Compound	Log10 TGI50
C#Cc1ccc(-n2c(/C=C/c3cc(OC)c(OC)c(OC)c3)nc3ncccc3c2=O)cc1 [4q, (E)-3-(4-Ethynylphenyl)-2-(3,4,5-trimethoxystyryl)pyrido[2,3-d]pyrimidin-4(3H)-one]	>−4.00

Same assay, conditions: Homo sapiens, read-out: Growth Inhibition GI50

Compound	GI50 [µM]
C#Cc1ccc(-n2c(/C=C/c3cc(OC)c(OC)c(OC)c3)nc3ncccc3c2=O)cc1 [4q, (E)-3-(4-Ethynylphenyl)-2-(3,4,5-trimethoxystyryl)pyrido[2,3-d]pyrimidin-4(3H)-one]	20.5

Same assay, conditions: Homo sapiens, read-out: Log10 GI50 (converted)

Compound	GI50 [µM]
C#Cc1ccc(-n2c(/C=C/c3cc(OC)c(OC)c(OC)c3)nc3ncccc3c2=O)cc1 [4q, (E)-3-(4-Ethynylphenyl)-2-(3,4,5-trimethoxystyryl)pyrido[2,3-d]pyrimidin-4(3H)-one]	20.4

Same assay, conditions: Homo sapiens, read-out: Log10 LC50 (converted)

Compound	CC50 [µM]
C#Cc1ccc(-n2c(/C=C/c3cc(OC)c(OC)c(OC)c3)nc3ncccc3c2=O)cc1 [4q, (E)-3-(4-Ethynylphenyl)-2-(3,4,5-trimethoxystyryl)pyrido[2,3-d]pyrimidin-4(3H)-one]	> 100

Test system: MALME-3M
Experiment: SRB 48 h growth assay, Melanoma MALME-3M
Format: cell-based, human
Conditions: not given

Compound	Log10 TGI50
C#Cc1ccc(-n2c(/C=C/c3cc(OC)c(OC)c(OC)c3)nc3ncccc3c2=O)cc1 [4q, (E)-3-(4-Ethynylphenyl)-2-(3,4,5-trimethoxystyryl)pyrido[2,3-d]pyrimidin-4(3H)-one]	−4.15

Same assay, conditions: Homo sapiens, read-out: Growth Inhibition GI50

Compound	GI50 [µM]
C#Cc1ccc(-n2c(/C=C/c3cc(OC)c(OC)c(OC)c3)nc3ncccc3c2=O)cc1 [4q, (E)-3-(4-Ethynylphenyl)-2-(3,4,5-trimethoxystyryl)pyrido[2,3-d]pyrimidin-4(3H)-one]	9.74

Same assay, conditions: Homo sapiens, read-out: Log10 GI50 (converted)

Compound	GI50 [µM]
C#Cc1ccc(-n2c(/C=C/c3cc(OC)c(OC)c(OC)c3)nc3ncccc3c2=O)cc1 [4q, (E)-3-(4-Ethynylphenyl)-2-(3,4,5-trimethoxystyryl)pyrido[2,3-d]pyrimidin-4(3H)-one]	9.77

Same assay, conditions: Homo sapiens, read-out: Log10 LC50 (converted)

Compound	CC50 [µM]
C#Cc1ccc(-n2c(/C=C/c3cc(OC)c(OC)c(OC)c3)nc3ncccc3c2=O)cc1 [4q, (E)-3-(4-Ethynylphenyl)-2-(3,4,5-trimethoxystyryl)pyrido[2,3-d]pyrimidin-4(3H)-one]	> 100

Test system: A498
Experiment: SRB 48 h growth assay, Renal A498
Format: cell-based, human
Conditions: not given

Compound	Log10 TGI50
C#Cc1ccc(-n2c(/C=C/c3cc(OC)c(OC)c(OC)c3)nc3ncccc3c2=O)cc1 [4q, (E)-3-(4-Ethynylphenyl)-2-(3,4,5-trimethoxystyryl)pyrido[2,3-d]pyrimidin-4(3H)-one]	−5.01

Same assay, conditions: Homo sapiens, read-out: Growth Inhibition GI50

Compound	GI50 [µM]
C#Cc1ccc(-n2c(/C=C/c3cc(OC)c(OC)c(OC)c3)nc3ncccc3c2=O)cc1 [4q, (E)-3-(4-Ethynylphenyl)-2-(3,4,5-trimethoxystyryl)pyrido[2,3-d]pyrimidin-4(3H)-one]	2.63

Same assay, conditions: Homo sapiens, read-out: Log10 GI50 (converted)

Compound	GI50 [µM]
C#Cc1ccc(-n2c(/C=C/c3cc(OC)c(OC)c(OC)c3)nc3ncccc3c2=O)cc1 [4q, (E)-3-(4-Ethynylphenyl)-2-(3,4,5-trimethoxystyryl)pyrido[2,3-d]pyrimidin-4(3H)-one]	2.63

Same assay, conditions: Homo sapiens, read-out: Log10 LC50 (converted)

Compound	CC50 [µM]
C#Cc1ccc(-n2c(/C=C/c3cc(OC)c(OC)c(OC)c3)nc3ncccc3c2=O)cc1 [4q, (E)-3-(4-Ethynylphenyl)-2-(3,4,5-trimethoxystyryl)pyrido[2,3-d]pyrimidin-4(3H)-one]	> 100
